Target: T1, amyloid β-protein 42 (Aβ42) (Homo sapiens, UniProt P05067)
T1 construct: gene APP
Experiment: ThT fluorescence fibrillation assay of synthetic Aβ[…]); supported by DSC Tm shifts, CD and AFM
Assay type: biochemical

T1 sequence (P05067 672-713): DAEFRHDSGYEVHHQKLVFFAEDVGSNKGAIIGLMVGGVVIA

## COC(=O)[C@]1(C)C(OC2OC(CO)C(O)C(O)C2O)[C@@H](O)C[C@@]2(C)C1CC[C@]1(C)C2CC=C2[C@@H]3CC(C)(C)CCC3(C(=O)O)CC[C@]21C (stereo partly shown) [DA, doliroside A]
  IC50: 26.6 ± 1.6 µM
